The record followed here is ChEMBL document CHEMBL4765280, “Carvedilol serves as a novel CYP1B1 inhibitor, a systematic drug repurposing approach through structure-based virtual screening and experimental verification” (Eur J Med Chem, 2020).

The IC50 is the concentration that inhibits the measured activity by half.

Series [1] deals with T1, Cytochrome P450 1B1 (Homo sapiens, UniProt Q16678).
T1 sequence (Q16678 whole entry): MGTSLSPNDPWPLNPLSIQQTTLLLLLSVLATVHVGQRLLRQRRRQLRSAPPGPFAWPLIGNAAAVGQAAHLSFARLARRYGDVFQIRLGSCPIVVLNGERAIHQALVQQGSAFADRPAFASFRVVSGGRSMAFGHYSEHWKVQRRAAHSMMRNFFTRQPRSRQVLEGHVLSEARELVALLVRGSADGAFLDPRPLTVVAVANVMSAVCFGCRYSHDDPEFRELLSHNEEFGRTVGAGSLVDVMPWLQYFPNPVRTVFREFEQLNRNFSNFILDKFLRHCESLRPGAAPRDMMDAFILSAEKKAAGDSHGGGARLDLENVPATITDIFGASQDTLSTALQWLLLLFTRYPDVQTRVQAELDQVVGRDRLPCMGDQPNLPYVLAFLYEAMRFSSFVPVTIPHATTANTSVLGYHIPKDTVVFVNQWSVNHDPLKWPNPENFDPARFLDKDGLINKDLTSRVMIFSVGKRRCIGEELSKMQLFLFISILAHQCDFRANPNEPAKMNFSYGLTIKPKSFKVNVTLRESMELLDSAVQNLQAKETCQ
The series can be described thus: Inhibition of human CYP1B1 using 7-ethyl-O-resorufin as substrate incubated for 30 mins in presence of NADPH by EROD assay.

For another series, the system named is A549. The series is described as follows: Cytotoxicity against human A549 cells assessed as reduction in cell viability after 72 hrs by MTT assay. Format: functional, cell-based. The following applies: dose 5-10 µM.
The next series deals with A549/Taxol. The series can be described thus: Cytotoxicity against human A549/Taxol cells assessed as reduction in cell viability after 72 hrs by MTT assay. Type of series: functional, cell-based. The following applies: dose 5-10 µM. (Tetrazolium dyes change colour on reduction, which living cells bring about.)
Series [2] addresses T1, Cytochrome P450 1B1. The series is described as follows: Inhibition of human CYP1B1 at 5 uM using 7-ethyl-O-resorufin as substrate incubated for 30 mins in presence of NADPH by EROD assay. The following applies: 0.5 h.

Turning to `COc1ccccc1OCCNCC(O)COc1cccc2[nH]c3ccccc3c12` (stereo not given) [CARVEDILOL], the IC50 on Cytochrome P450 1B1 [1] is 1.1 µM. Besides, the Activity entry with A549 and in the series with A549/Taxol was “Dose-dependent effect” throughout. Further, the “inhibition (INH)” value at Cytochrome P450 1B1 [2] was “Active”.
In the case of `C=C[C@H]1C[N@@]2CC[C@H]1C[C@@H]2[C@@H](O)c1ccnc2ccc(OC)cc12` [QUINIDINE], the “inhibition (INH)” value at Cytochrome P450 1B1 [2] is “Not Active”.
Consider `CCN(CCO)CCCC(C)Nc1ccnc2cc(Cl)ccc12.O=S(=O)(O)O` (stereo not given) [HYDROXYCHLOROQUINE SULFATE], for which the “inhibition (INH)” value at Cytochrome P450 1B1 [2] is given as “Not Active”.
On to `CCc1cc2c(cc1CC)CC(NC[C@H](O)c1ccc(O)c3[nH]c(=O)ccc13)C2` [INDACATEROL], for which the IC50 at Cytochrome P450 1B1 [1] was 59.2 µM. The “inhibition (INH)” value on Cytochrome P450 1B1 [2] was “Active”.
With `CC(CCc1ccccc1)NCC(O)c1ccc(O)c(C(N)=O)c1` (stereo not given) [LABETALOL], the “inhibition (INH)” value on Cytochrome P450 1B1 [2] is reported as “Not Active”.
Turning to `C#C[C@]1(O)CC[C@H]2[C@@H]3CCc4cc(O)ccc4[C@H]3CC[C@@]21C` [ETHINYL ESTRADIOL], the “inhibition (INH)” value at Cytochrome P450 1B1 [2] is “Not Active”.
